{"source": "ChEMBL document CHEMBL1155440", "about": "“1-(5-carboxyindol-1-yl)propan-2-one inhibitors of human cytosolic phospholipase A(2)alpha with reduced lipophilicity: synthesis, biological activity, metabolic stability, solubility, bioavailability, and topical in vivo activity” (J Med Chem, 2010)", "key": {"[1]": {"experiment": "Drug level in C57Bl6 mouse plasma at 10 mg/kg, iv after 5 mins by UV-reverse phase HPLC analysis", "format": "ADME, organism-based", "design": "dose 10 mg/kg, route intravenous", "conditions": "read-out: Drug uptake"}, "[2]": {"experiment": "Drug level in C57Bl6 mouse plasma at 100 mg/kg, po after 2 hrs by UV-reverse phase HPLC analysis", "format": "ADME, organism-based", "design": "dose 100 mg/kg, route oral", "conditions": "read-out: Drug uptake"}, "[3]": {"experiment": "Drug level in C57Bl6 mouse plasma at 10 mg/kg, iv after 30 mins by UV-reverse phase HPLC analysis", "format": "ADME, organism-based", "design": "dose 10 mg/kg, route intravenous", "conditions": "read-out: Drug uptake"}, "[4]": {"experiment": "Drug level in C57Bl6 mouse bile at 10 mg/kg, iv after 30 mins by HPLC/MS analysis", "format": "ADME, organism-based", "design": "dose 10 mg/kg, route intravenous", "conditions": "read-out: Drug uptake"}, "[5]": {"experiment": "Drug level in C57Bl6 mouse plasma at 10 mg/kg, po after 1 hr by UV-reverse phase HPLC analysis", "format": "ADME, organism-based", "design": "dose 10 mg/kg, route oral", "conditions": "read-out: Drug uptake"}, "[6]": {"experiment": "Drug level in C57Bl6 mouse plasma at 100 mg/kg, po after 1 hr by UV-reverse phase HPLC analysis", "format": "ADME, organism-based", "design": "dose 100 mg/kg, route oral", "conditions": "read-out: Drug uptake"}, "[7]": {"experiment": "Drug level in C57Bl6 mouse bile at 100 mg/kg, po after 2 hrs by HPLC/MS analysis", "format": "ADME, organism-based", "design": "dose 100 mg/kg, route oral", "conditions": "read-out: Drug uptake"}, "[8]": {"experiment": "Drug level in C57Bl6 mouse plasma at 10 mg/kg, po after 2 hrs by UV-reverse phase HPLC analysis", "format": "ADME, organism-based", "design": "dose 10 mg/kg, route oral", "conditions": "read-out: Drug uptake"}, "[9]": {"biological_target": "T1, 85/88 kDa calcium-independent phospholipase A2 (Rattus norvegicus) (UniProt P97570)", "T1 sequence (whole entry)": "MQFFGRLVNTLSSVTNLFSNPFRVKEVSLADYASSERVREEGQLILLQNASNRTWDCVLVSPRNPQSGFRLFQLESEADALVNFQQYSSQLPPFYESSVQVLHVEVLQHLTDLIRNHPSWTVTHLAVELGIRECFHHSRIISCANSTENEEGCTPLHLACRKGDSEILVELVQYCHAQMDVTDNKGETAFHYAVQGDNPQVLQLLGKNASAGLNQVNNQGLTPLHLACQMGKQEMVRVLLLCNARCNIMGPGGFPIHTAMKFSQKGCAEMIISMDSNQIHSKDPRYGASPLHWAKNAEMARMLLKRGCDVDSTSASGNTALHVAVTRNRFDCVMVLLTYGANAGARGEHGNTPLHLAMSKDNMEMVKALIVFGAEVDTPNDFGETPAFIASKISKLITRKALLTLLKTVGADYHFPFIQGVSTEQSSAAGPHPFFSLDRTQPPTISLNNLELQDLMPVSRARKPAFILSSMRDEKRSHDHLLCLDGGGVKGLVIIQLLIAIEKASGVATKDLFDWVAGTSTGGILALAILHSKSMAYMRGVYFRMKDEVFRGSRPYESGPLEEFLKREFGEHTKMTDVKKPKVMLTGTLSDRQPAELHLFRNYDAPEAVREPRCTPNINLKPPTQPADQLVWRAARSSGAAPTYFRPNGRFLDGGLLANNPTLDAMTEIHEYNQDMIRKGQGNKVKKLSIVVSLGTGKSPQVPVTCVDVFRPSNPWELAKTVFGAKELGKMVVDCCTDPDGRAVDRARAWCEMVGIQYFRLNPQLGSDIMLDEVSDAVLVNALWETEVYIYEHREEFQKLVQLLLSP", "experiment": "Inhibition of Sprague-Dawley rat brain iPLA2 assessed as inhibition of substrate cleavage at 10 uM after 60 mins by HPLC analysis"}, "[10]": {"biological_target": "Phospholipase A2, major isoenzyme (Sus scrofa) (UniProt P00592)", "sequence (P00592 23-146 limits assumed)": "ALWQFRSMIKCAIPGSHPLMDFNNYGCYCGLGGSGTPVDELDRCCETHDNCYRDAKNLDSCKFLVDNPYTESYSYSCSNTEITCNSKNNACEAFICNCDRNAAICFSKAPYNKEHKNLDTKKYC", "experiment": "Inhibition of pig pancreas group 1B sPLA2 assessed as inhibition of POPG cleavage at 10 uM after 30 mins by HPLC analysis"}, "[11]": {"experiment": "Partition coefficient, log P at 5 mM by reverse phase HPLC analysis", "format": "physicochemical", "conditions": "octanol/water"}, "Mus musculus [12]": {"system": "Mus musculus", "experiment": "Antiinflammatory activity in BALB/c mouse assessed as inhibition of benzalkonium chloride-induced ear edema at 0.01 mg/ear administered topically after 10 mins of benzalkonium chloride challenge measured after 5 to 7 hrs of induction of dermatitis", "format": "functional, organism-based"}, "Mus musculus [13]": {"system": "Mus musculus", "experiment": "Antiinflammatory activity in BALB/c mouse assessed as inhibition of benzalkonium chloride-induced ear edema at 0.1 to 1 mg/ear administered topically after 10 mins of benzalkonium chloride challenge measured after 1 hr of induction of dermatitis", "format": "functional, organism-based"}, "Mus musculus [14]": {"system": "Mus musculus", "experiment": "Antiinflammatory activity in topically dosed BALB/c mouse assessed as inhibition of benzalkonium chloride-induced ear edema administered after 10 mins of benzalkonium chloride challenge measured after 1 to 7 hrs of induction of dermatitis", "format": "functional, organism-based"}, "[15]": {"experiment": "Inhibition of TPA-induced cPLA2alpha in human platelets assessed as inhibition of arachidonic acid production after 60 mins by UV-reverse phase HPLC analysis", "conditions": "1 h"}, "Mus musculus [16]": {"system": "Mus musculus", "experiment": "Antiinflammatory activity in BALB/c mouse assessed as inhibition of benzalkonium chloride-induced ear edema at 0.1 mg/ear administered topically after 10 mins of benzalkonium chloride challenge measured after 7 hrs of induction of dermatitis", "format": "functional"}, "Mus musculus [17]": {"system": "Mus musculus", "experiment": "Antiinflammatory activity in BALB/c mouse assessed as inhibition of benzalkonium chloride-induced ear edema at 0.1 to 1 mg/ear administered topically after 10 mins of benzalkonium chloride challenge measured after 5 hrs of induction of dermatitis", "format": "functional, organism-based"}, "Mus musculus [18]": {"system": "Mus musculus", "experiment": "Antiinflammatory activity in BALB/c mouse assessed as inhibition of benzalkonium chloride-induced ear edema at 0.005 mg/ear administered topically after 10 mins of benzalkonium chloride challenge measured after 7 hrs of induction of dermatitis", "format": "functional"}, "Mus musculus [19]": {"system": "Mus musculus", "experiment": "Antiinflammatory activity in BALB/c mouse assessed as inhibition of benzalkonium chloride-induced ear edema at 0.1 to 1 mg/ear administered topically after 10 mins of benzalkonium chloride challenge measured after 7 hrs of induction of dermatitis", "format": "functional, organism-based"}, "[20]": {"experiment": "Inhibition of cPLA2alpha"}, "Homo sapiens": {"species": "Homo sapiens", "experiment": "Inhibition of human platelet cPLA2alpha assessed as inhibition of arachidonic acid production at 33 nM after 60 mins by UV-reverse phase HPLC analysis"}, "[21]": {"experiment": "Thermodynamic solubility in sodium phosphate buffer of pH 7.4 by UV-reverse phase HPLC analysis", "format": "physicochemical"}, "[22]": {"experiment": "Inhibition of human platelet cPLA2alpha assessed as inhibition of arachidonic acid production after 60 mins by UV-reverse phase HPLC analysis", "conditions": "1 h"}, "[23]": {"experiment": "Metabolic stability in rat liver microsomes assessed as compound remaining after 30 mins by HPLC/MS analysis", "format": "ADME, Microsome", "conditions": "read-out: Stability"}}, "note": "The source made the active and inactive calls. The calls are words filed in the database; no cut-off is given here.", "data": [{"smiles": "CC(C)C(=O)c1cn(CC(O)COc2ccc(Oc3ccccc3)cc2)c2ccc(C(=O)O)cc12", "note": "(centres undefined)", "values": [{"measurement": "concentration at 5 min", "setting": "[1]", "result": 6200, "unit": "ng/mL"}, {"measurement": "concentration at 2 h", "setting": "[2]", "result": 300, "unit": "ng/mL"}, {"measurement": "concentration at 0.5 h", "setting": "[3]", "result": 500, "unit": "ng/mL"}, {"measurement": "concentration at 0.5 h", "setting": "[4]", "result": 96000, "unit": "ng/mL"}, {"measurement": "concentration at 1 h", "setting": "[5]", "result": 42000, "unit": "ng/mL"}, {"measurement": "concentration at 1 h", "setting": "[6]", "result": 1700, "unit": "ng/mL"}, {"measurement": "concentration at 2 h", "setting": "[7]", "result": 42000, "unit": "ng/mL"}, {"measurement": "concentration at 2 h", "setting": "[8]", "result": 34000, "unit": "ng/mL"}]}, {"smiles": "O=C1O/C(=C/Br)CCC1c1cccc2ccccc12", "note": "(centres undefined)", "values": [{"measurement": "inhibition", "setting": "[9]", "result": 50, "unit": "%"}]}, {"smiles": "O=C(O)CC[C@@H](Cc1ccc(OCc2ccccc2)cc1)NC(=O)CCCCCCc1ccccc1", "values": [{"measurement": "inhibition", "setting": "[10]", "result": 89, "unit": "%"}]}, {"smiles": "CC(C)C(=O)c1cn(CC(=O)COc2ccc(Oc3ccccc3)cc2)c2ccc(C(=O)O)cc12", "values": [{"measurement": "logP at 5000 µM", "setting": "[11]", "result": 3.5}, {"measurement": "inhibition", "setting": "Mus musculus [12]", "result": "inactive"}, {"measurement": "inhibition", "setting": "Mus musculus [13]", "result": "Active"}, {"measurement": "inhibition", "setting": "[9]", "result": "inactive"}, {"measurement": "inhibition", "setting": "Mus musculus [14]", "result": "Dose-dependent effect"}, {"measurement": "IC50", "setting": "[15]", "result": 0.015, "unit": "µM"}, {"measurement": "inhibition (INH)", "setting": "Mus musculus [16]", "result": 84, "unit": "%"}, {"measurement": "inhibition", "setting": "[10]", "result": "inactive"}, {"measurement": "inhibition", "setting": "Mus musculus [17]", "result": "Active"}, {"measurement": "inhibition (INH)", "setting": "Mus musculus [18]", "result": 90, "unit": "%"}, {"measurement": "inhibition", "setting": "Mus musculus [19]", "result": "Active"}]}, {"smiles": "CCCCCCCCc1ccc(OCC(=O)Cn2ccc3cc(C(=O)O)ccc32)cc1", "values": [{"measurement": "logP at 5000 µM", "setting": "[11]", "result": 6.3}, {"measurement": "IC50", "setting": "[20]", "result": 0.12, "unit": "µM"}, {"measurement": "inhibition", "setting": "Homo sapiens", "result": 47, "unit": "%"}]}, {"smiles": "CCCCCCCCc1ccc(OCC(=O)Cn2ccc3cc(C(N)=O)ccc32)cc1", "values": [{"measurement": "logP at 5000 µM", "setting": "[11]", "result": 5.5}, {"measurement": "solubility thermodynamic", "setting": "[21]", "result": "< 3", "unit": "µg/mL"}, {"measurement": "IC50", "setting": "[22]", "result": 0.12, "unit": "µM"}, {"measurement": "IC50", "setting": "[20]", "result": 0.035, "unit": "µM"}, {"measurement": "remaining at 0.5 h", "setting": "[23]", "result": 54, "unit": "%"}]}]}
